Measured values: patent US12115218B2 (priority 2018, dated 2024)
Structures can show the parent of a compound that is named as a salt.

System: Inactivated porcine circovirus type 2 vaccine (SH strain) antigen
Design: species or system mice
Details: mouse, in vivo

Row | Compound | Antibody titers in mice
1 | polyinosinic acid-polycytidylic acid | no adjuvant synergistic effect was produced
2 | c1ccc([C@H]2CN3CCSC3=N2)cc1 [levamisole aqueous solution, levamisole hydrochloride] | no adjuvant synergistic effect was produced
